Assay [1] in a line: Control: emission of mixture of BSA-Atto390 and Hc-Cy5 during deoxygenation, excitation 280 nm. Particulars: solution mixture. The text has this:
To rule out that the changes in dye fluorescence might be due to a specific quenching by molecular oxygen, a mixture of Atto390 labelled bovine serum albumin (BSA) and Hc-Cy5 was deoxygenated while recording emission spectra from 300 to 750 nm upon excitation at 280 nm. The applied labels emit at different wavelengths, therefore permitting the simultaneous observation of each individual conjugate. […] With the labels exchanged, the reverse was observed. From this it can be concluded that the variations in label fluorescence correlate with the binding of O2 to the labelled hemocyanin. […] Similar observations were made for Ty.

A short description of assay [2]: Sol-gel controls: O2 dependence of non-binding species, leaking, storage stability. Type of assay: physicochemical. Particulars: individually encapsulated in a sol-gel matrix. The text has this: [19]. The buffer solution surrounding the quartz slides was checked for leaking of the labeled protein out of the matrix. […] As already reported, the mechanical strength of silica gels often prevents the leaking of biomolecules. 3) Tryptophan fluorescence has been used to study stability and flexibility of proteins upon entrapment.

Assay [3] can be described thus: Switching ratio of Trp/label emission of tyrosinase (Ty) on deoxygenation, excitation 280 nm. Details: species or system Streptomyces antibioticus. Particulars: emission of Trp or of N-terminal dye label on Ty, excitation at 280 nm. The method, then: To illustrate this Example, Ty from the soil bacterium Streptomyces antibiotius was selected.
S.c. Ty contains 12 Trp residues on a total of 271 amino-acids (4.4% against ˜1% on average), which cluster around the type-3 centre. […] In an air-saturated solution (0.26 mM O2), practically all protein occurs in the oxygenated form (see FIG. 2A). Upon complete deoxygenation, the Trp fluorescence increases by a factor of 2.7 while the shape and position of the emission band remain unchanged. For the C.a. Hc samples, this factor, further referred to as the switching ratio SR (=Fred/Foxy), amounts to 2.2.
Both Hc and Ty were labelled at their N-terminus with each of the five dyes. […] The peak around […] is a second-order artefact. In a solution containing dye and protein separately (not linked) this peak (280 nm) was missing. The second order artefact is due to higher orders of light being allowed through the monochromator. The artefact can be excluded by placing a cut-off filter in the detection path that allows through light only beyond a certain wavelength (for example […]).
In all cases, an increase in label emission was observed after deoxygenating the sample (FIG. 4A). […] The Cy3 fluorescence is specific for the labelled protein, while the Trp emission derives mainly (>95%) from unlabelled Hc. […]

The values that follow come from patent US20100015635A1, “IMMOBILISATION OF FLUORESCENT PROTEINS” (priority 2006, published 2010).

As to “BSA-Atto390: Atto390 labelled bovine serum albumin, control”, the “dependence of label emission on [O2]” value in assay [1] is “does not”.

As for “bovine serum albumin labeled with Cy5: BSA labeled with Cy5 encapsulated in a sol-gel matrix, control”, the “dependence of fluorescence intensity on [O2]” value in assay [2] was “neither unreacted Cy5 nor bovine serum albumin labeled with Cy5, both individually encapsulated in a sol-gel matrix, depended on the [O2]”.

B1: Ty: tyrosinase from the soil bacterium Streptomyces antibiotius (protein, UniProt P07524 2-273, looked up)
Tyrosinase: TVRKNQASLTAEEKRRFVAALLELKRTGRYDAFVTTHNAFILGDTDNGERTGHRSPSFLPWHRRFLLEFERALQSVDASVALPYWDWSADRSTRSSLWAPDFLGGTGRSRDGQVMDGPFAASAGNWPINVRVDGRTFLRRALGAGVSELPTRAEVDSVLAMATYDMAPWNSGSDGFRNHLEGWRGVNLHNRVHVWVGGQMATGVSPNDPVFWLHHAYIDKLWAEWQRRHPSSPYLPGGGTPNVVDLNETMKPWNDTTPAALLDHTRHYTFDV
In the case of B1, the “SR Tyr (switching ratio Fred/Foxy)” value in assay [3] was 2.7.
